The values that follow are results of earlier work, collected in patent US5545628A, “Pharmaceutical composition containing fenofibrate” (priority 1995, dated 1996).

Structures are written as SMILES.

For `CC(C)OC(=O)C(C)(C)Oc1ccc(C(=O)c2ccc(Cl)cc2)cc1` [Fenofibrate, P-(4-chlorobenzoyl)-phenoxy isobutyrate isopropyl ester], the absorption as metabolite result (oral) is “absorbed as fenofibric acid”. With `CC(C)(Oc1ccc(C(=O)c2ccc(Cl)cc2)cc1)C(=O)O` [Fenofibric acid], the excretion result (fenofibric acid, mainly as the glucuronide conjugate) was “excreted predominantly in the urine”.
